Reference: patent US10314307B2, “(S)-abscisic acid derivatives for improving plant stress tolerance” (Valent BioSciences Corporation, priority 2015, dated 2019)

What was measured:
Type in all cases: in vivo
[1] = system: soybean plants; assay: Soybean drought tolerance (stomatal conductance)
Protocol: In this study, soybean plants were grown for 10 days under ambient lab temperature conditions and illumination of 150 umol m^2 s^−1 and a 16:8 photoperiod. At spraying, the primary leaves were fully expanded and the first trifoliate leaves were partially expanded. The plants were sprayed to dampness with solutions of water, S-ABA, 3′-methyl-(S)-abscisic acid, or 3′-propargyl-(S)-abscisic acid containing 0.025% (v/v) non-ionic surfactant. At times following spraying, the conductance of the primary leaves was measured using an AP4 porometer (Delta T Devices, Cambridge, UK) to evaluate the effect on stomatal conductance. A decrease in stomatal aperture, reflected in the conductance measures, is an immediate and direct effect of applied S-ABA. To simplify the data, the controls were always set to 100%. In Table 9, the effect of spray applications on the stomatal conductance was measured.

[2] = system: corn plants, 111 day, central corn belt variety; assay: Corn plant chilling (growth rate); settings: for Growth during stress recovery following cold: 3′-propargyl-(S)-ABA particularly between 11.4 and 113.7 g/acre, S-ABA at rates up to 1000 mg/liter (113.7 g/acre); for Maintenance of growth under cold (10° C.) conditions: S-ABA even at 1000 mg/l (113.7 g/acre); for Growth Rate, Greenhouse 7-9 d post spray: after chilling; for Growth Rate, Greenhouse 0-2 d post spray: before chilling; for Growth Rate, Growth Chamber 10° C. 2-7 d post spray: during chilling at 10° C.
Protocol: Corn seeds of a 111 day, central corn belt variety were planted in 2-quart pots filled with medium. After the corn grew for 10 days in the greenhouse at 24±3° C. (V2 to V3 growth stage), the plants received a foliar spray application of aqueous solutions of the test compounds containing 0.25% non-ionic surfactant with a volume equivalent to 30 gallons/acre. After spraying, plants were moved back to the greenhouse for 2 days, then moved to a growth chamber kept at 10° C. with a 16:8 light:dark cycle (cold treatment). After 5 days in the cold, plants were returned to the greenhouse for 2 days before being harvested destructively. Results of the studies comparing the growth rate of plants treated with S-ABA with 3′-methyl-(S)-ABA during the experiment are shown in Table 3. In additional studies, the effect of S-ABA and 3′-propargyl-(S)-ABA on corn growth rate in chilling studies was compared.

[3] = system: corn plants, commercial 111 day, central corn belt variety; assay: Corn stomatal conductance; settings: for Average Stomatal Conductance (% of Control), 6 DAS: 6 days after spraying; for Average Stomatal Conductance (% of Control), 16 DAS: 16 days after spraying
Protocol: (§1) In this greenhouse experiment, foliar spray treatments containing 3′-methyl-(S)-abscisic acid, 3′-propargyl-(S)-abscisic acid or (S)-abscisic acid were applied to corn plants to evaluate their effect on gas exchange, as measured through stomatal conductance. Corn plants of a commercial, 111 day, central corn belt variety were grown in the greenhouse under optimal conditions for five weeks and were size-matched into ten groups of five plants. Using an aerosol sprayer, each group was sprayed to drip (25 milliliters per plant) with solutions containing a non-ionic surfactant (0.125%, v/v) and water (control), 2.5 mg, 7.5 mg or 25 mg/plant 3′-methyl-(S)-abscisic acid, or 2.5 mg, 7.5 mg or 25 mg/plant 3′-propargyl-(S)-abscisic acid, or 7.5 mg, 25 mg or 75 mg/plant (5)-ABA, respectively. After spraying, plants were returned to the greenhouse for the duration of the experiment. Stomatal conductance was measured using an AP4 porometer (Delta T Devices, Cambridge, UK) and the conductance for each plant was recorded at approximately the same time of day (˜10 AM) prior to treatment application as well as 1, 2, 5, 6, 9 and 16 days post-spraying.

[4] = system: corn plants, commercial 111 day, central corn belt variety; assay: Corn plant leaf rolling assay and shoot fresh weight under drought; settings: for Shoot Fresh Weight, 15 DAS: 12 days drought then 3 days watering; for Average # of Rolled Leaves/Plant, 5 DAS / Average # of Rolled Leaves/Plant, 6 DAS / Average # of Rolled Leaves/Plant, 8 DAS: water withheld; for Average # of Rolled Leaves/Plant, 5 DAS: 5 days after spraying; for Average # of Rolled Leaves/Plant, 6 DAS: 6 days after spraying; for Average # of Rolled Leaves/Plant, 8 DAS: 8 days after spraying
Protocol: as §1, with “post-spraying. This study was conducted as described above with the following the exceptions. After spraying, plants were put back in the greenhouse and water was withheld for twelve days, simulating drought stress. The plants were then watered to saturation for three consecutive days before the plant shoots were cut at the soil surface and subsequently weighed in grams (fresh weight). Leaf-rolling data and fresh weight data were recorded for each plant following treatment application at the times specified below in Table 6.” for “post-spraying.”

[5] = foliar spray 300 mg/l, 0.3 mg/plant
[6] = Table 4 study, foliar spray 30 mg/l (3.4 g/acre)
[7] = Table 4 study, foliar spray 100 mg/l (11.4 g/acre)
[8] = Table 4 study, foliar spray 300 mg/l (34.1 g/acre)
[9] = Table 4 study, foliar spray 1000 mg/l (113.7 g/acre)
[10] = foliar spray 100 ppm or 2.5 mg/plant
[11] = foliar spray 300 ppm or 7.5 mg/plant
[12] = foliar spray 1000 ppm or 25 mg/plant
[13] = foliar spray 1000 mg/l, 1.0 mg/plant
[14] = Table 3 study, foliar spray 1000 mg/l (113.7 g/acre)
[15] = foliar spray 3000 ppm or 75 mg/plant

For `C#CCC1=C(C)[C@](O)(/C=C/C(C)=C\C(=O)O)C(C)(C)CC1=O` [3′-propargyl-(S)-ABA, (2Z,4E)-5-((S)-1-hydroxy-2,6,6-trimethyl-4-oxo-3-(prop-2-yn-1-yl)cyclohex-2-en-1-yl)-3-methylpenta-2,4-dienoic acid], the “Reduction in stomatal conductance at 1 day post spraying” value ([1]; 300 mg/l foliar spray) was 92%, the “Percent Conductance (stomatal conductance, control = 100%), Day 1” value [1, 5] was 8% and the “Percent Conductance (stomatal conductance, control = 100%), Day 2” value [1, 5] was 14%. The “Percent Conductance (stomatal conductance, control = 100%), Day 5” value [1, 5] was 33%, the “Percent Conductance (stomatal conductance, control = 100%), Day 6” value [1, 5] was 52% and the “Percent Conductance (stomatal conductance, control = 100%), Day 7” value [1, 5] was 57%. For the same compound, the “Growth during stress recovery following cold” value [2] was “did aid growth during stress recovery”, the “Maintenance of growth under cold (10° C.) conditions” value [2] was “did not maintain growth under cold stress” and the “Growth Rate, Greenhouse 7-9 d post spray” value [2, 6] was 1.978 cm/day. For the same compound, the “Growth Rate, Greenhouse 0-2 d post spray” value [2, 6] was 3.239 cm/day, the “Growth Rate, Growth Chamber 10° C. 2-7 d post spray” value [2, 6] was 1.258 cm/day and the “Growth Rate, Greenhouse 7-9 d post spray” value [2, 7] was 2.489 cm/day. The “Growth Rate, Greenhouse 0-2 d post spray” value [2, 7] was 2.294 cm/day, the “Growth Rate, Growth Chamber 10° C. 2-7 d post spray” value [2, 7] was 1.173 cm/day and the “Growth Rate, Greenhouse 7-9 d post spray” value [2, 8] was 2.500 cm/day. The “Growth Rate, Greenhouse 0-2 d post spray” value [2, 8] was 2.544 cm/day, the “Growth Rate, Growth Chamber 10° C. 2-7 d post spray” value [2, 8] was 1.033 cm/day and the “Growth Rate, Greenhouse 7-9 d post spray” value [2, 9] was 2.300 cm/day. For the same compound, the “Growth Rate, Greenhouse 0-2 d post spray” value [2, 9] was 2.172 cm/day, the “Growth Rate, Growth Chamber 10° C. 2-7 d post spray” value [2, 9] was 0.787 cm/day and the “Average Stomatal Conductance (% of Control), 6 DAS” value [3, 10] was 80.6 % of Control. The “Average Stomatal Conductance (% of Control), 16 DAS” value [3, 10] was 87.7 % of Control, the “Average Stomatal Conductance (% of Control), 6 DAS” value [3, 11] was 74.3 % of Control and the “Average Stomatal Conductance (% of Control), 16 DAS” value [3, 11] was 77.9 % of Control. For the same compound, the “Average Stomatal Conductance (% of Control), 6 DAS” value [3, 12] was 56.0 % of Control, the “Average Stomatal Conductance (% of Control), 16 DAS” value [3, 12] was 59.0 % of Control and the “Relative potency resulting in a 25% reduction in transpiration, times that seen with S-ABA” value ([3]; regression of the data in Table 5) was 4.83 times. The “Shoot Fresh Weight, 15 DAS” value ([4]; 100 ppm or 2.5 mg/plant) was 263.9 grams, the “Average # of Rolled Leaves/Plant, 5 DAS” value ([4]; 100 ppm or 2.5 mg/plant) was 1.8 and the “Average # of Rolled Leaves/Plant, 6 DAS” value ([4]; 100 ppm or 2.5 mg/plant) was 3.8. For the same compound, the “Average # of Rolled Leaves/Plant, 8 DAS” value ([4]; 100 ppm or 2.5 mg/plant) was 7.2, the “Shoot Fresh Weight, 15 DAS” value ([4]; 300 ppm or 7.5 mg/plant) was 313.1 grams and the “Average # of Rolled Leaves/Plant, 5 DAS” value ([4]; 300 ppm or 7.5 mg/plant) was 1.8. The “Average # of Rolled Leaves/Plant, 6 DAS” value ([4]; 300 ppm or 7.5 mg/plant) was 3.6, the “Average # of Rolled Leaves/Plant, 8 DAS” value ([4]; 300 ppm or 7.5 mg/plant) was 8.0 and the “Shoot Fresh Weight, 15 DAS” value ([4]; 1000 ppm or 25 mg/plant) was 334.4 grams. The “Average # of Rolled Leaves/Plant, 5 DAS” value ([4]; 1000 ppm or 25 mg/plant) was 0.0, the “Average # of Rolled Leaves/Plant, 6 DAS” value ([4]; 1000 ppm or 25 mg/plant) was 0.0 and the “Average # of Rolled Leaves/Plant, 8 DAS” value ([4]; 1000 ppm or 25 mg/plant) was 7.0.

In the case of `CC1=CC(=O)CC(C)(C)[C@@]1(O)/C=C/C(C)=C/C(=O)O` [S-ABA, (S)-abscisic acid], the “Reduction in stomatal conductance at 1 day post spraying” value ([1]; 300 mg/l foliar spray) is reported as 58%, the “Time of 50% recovery of the control conductance” value ([1]; 300 mg/l foliar spray) is reported as at most 2 days and the “Time of greater than 50% recovery of the control conductance” value ([1]; 1000 mg/l foliar spray) is reported as 5 days. For the same compound, the “Percent Conductance (stomatal conductance, control = 100%), Day 1” value [1, 5] was 42%, the “Percent Conductance (stomatal conductance, control = 100%), Day 2” value [1, 5] was 56% and the “Percent Conductance (stomatal conductance, control = 100%), Day 5” value [1, 5] was 80%. The “Percent Conductance (stomatal conductance, control = 100%), Day 6” value [1, 5] was 108%, the “Percent Conductance (stomatal conductance, control = 100%), Day 7” value [1, 5] was 122% and the “Percent Conductance (stomatal conductance, control = 100%), Day 1” value [1, 13] was 27%. For the same compound, the “Percent Conductance (stomatal conductance, control = 100%), Day 2” value [1, 13] was 32%, the “Percent Conductance (stomatal conductance, control = 100%), Day 5” value [1, 13] was 58% and the “Percent Conductance (stomatal conductance, control = 100%), Day 6” value [1, 13] was 80%. The “Percent Conductance (stomatal conductance, control = 100%), Day 7” value [1, 13] was 118%, the “Growth during stress recovery following cold” value [2] was “did not aid recovery growth” and the “Maintenance of growth under cold (10° C.) conditions” value [2] was “did not maintain growth”. For the same compound, the “Growth Rate, Greenhouse 7-9 d post spray” value [2, 14] was 3.270 cm/day, the “Growth Rate, Greenhouse 0-2 d post spray” value [2, 14] was 4.315 cm/day and the “Growth Rate, Growth Chamber 10° C. 2-7 d post spray” value [2, 14] was 0.766 cm/day. For the same compound, the “Growth Rate, Greenhouse 7-9 d post spray” value [2, 9] was 2.161 cm/day, the “Growth Rate, Greenhouse 0-2 d post spray” value [2, 9] was 3.156 cm/day and the “Growth Rate, Growth Chamber 10° C. 2-7 d post spray” value [2, 9] was 1.249 cm/day. For the same compound, the Leaf area ([2]; in one of two studies, not repeatable across studies, 3′-methyl-(S)-abscisic acid at 30, 100 and 300 mg/liter) was “increased”, the “Average Stomatal Conductance (% of Control), 6 DAS” value [3, 11] was 88.5 % of Control and the “Average Stomatal Conductance (% of Control), 16 DAS” value [3, 11] was 89.3 % of Control. The “Average Stomatal Conductance (% of Control), 6 DAS” value [3, 12] was 83.7 % of Control, the “Average Stomatal Conductance (% of Control), 16 DAS” value [3, 12] was 88.0 % of Control and the “Average Stomatal Conductance (% of Control), 6 DAS” value [3, 15] was 61.3 % of Control. For the same compound, the “Average Stomatal Conductance (% of Control), 16 DAS” value [3, 15] was 62.5 % of Control, the “Shoot Fresh Weight, 15 DAS” value ([4]; 300 ppm or 7.5 mg/plant) was 258.9 grams and the “Average # of Rolled Leaves/Plant, 5 DAS” value ([4]; 300 ppm or 7.5 mg/plant) was 2.8. For the same compound, the “Average # of Rolled Leaves/Plant, 6 DAS” value ([4]; 300 ppm or 7.5 mg/plant) was 2.6, the “Average # of Rolled Leaves/Plant, 8 DAS” value ([4]; 300 ppm or 7.5 mg/plant) was 8.4 and the “Shoot Fresh Weight, 15 DAS” value ([4]; 1000 ppm or 25 mg/plant) was 282.5 grams. The “Average # of Rolled Leaves/Plant, 5 DAS” value ([4]; 1000 ppm or 25 mg/plant) was 1.2, the “Average # of Rolled Leaves/Plant, 6 DAS” value ([4]; 1000 ppm or 25 mg/plant) was 3.0 and the “Average # of Rolled Leaves/Plant, 8 DAS” value ([4]; 1000 ppm or 25 mg/plant) was 8.8. For the same compound, the “Shoot Fresh Weight, 15 DAS” value ([4]; 3000 ppm or 75 mg/plant) was 301.7 grams, the “Average # of Rolled Leaves/Plant, 5 DAS” value ([4]; 3000 ppm or 75 mg/plant) was 0.0 and the “Average # of Rolled Leaves/Plant, 6 DAS” value ([4]; 3000 ppm or 75 mg/plant) was 0.2. For the same compound, the “Average # of Rolled Leaves/Plant, 8 DAS” value ([4]; 3000 ppm or 75 mg/plant) was 7.2 and the “Effectiveness at reducing leaf rolling” value ([4]; S-ABA 75 mg/plant compared with 25 mg of the derivatives) was “as effective at reducing leaf rolling as 25 mg of 3′-methyl-(S)-abscisic acid, or 3′-propargyl-(S)-abscisic acid”.
